Assay results as given in patent publication US10617677B2, “Nuclear transport modulators and uses thereof” (Biogen MA Inc., priority 2012, dated 2020).

Test system: Z-138 xenograft tumors
Experiment: Z-138 lymphoma xenograft in SCID mice
Format: in vivo
Protocol: Z-138 (ATCC # CRL-3001) mantle cell lymphoma cells were obtained from ATCC. These cells were grown in IMEM medium supplemented with 10% horse serum, 1% penicillin and streptomycin, and 2 mM L-glutamine. […] Twenty-four (24) female CB-17 SCID mice (Charles River Labs strain code 236), aged 5 to 6 weeks were used. The SCID mice were inoculated in the left flank with Z-138 cells in a volume of 0.2 mL, equivalent to 4×10^7 cells per mouse. […] Mice were allocated to […] prior to the initiation of treatment based on tumor volume such that mean tumor volume in each group was within the range of 77 to 92 mm^3. […] Animals were fed with Labdiet® 5001 rodent chow and sterile water ad libitum. […] Animals with weight loss of more than 20% of their starting weight were euthanized. Mice with weight loss of more than 15% of their starting weight were not treated again until weight loss recovered to less than 5% of their starting weight. Any animals with a tumor volume of more than 1500 mm^3 were euthanized. Dosing solutions were prepared fresh on each day of dosing. […] This was prepared by dissolving the lyophilized powder in sterile water.

O=C(/C=C\n1cnc(-c2cc(C(F)(F)F)cc(C(F)(F)F)c2)n1)NNC(=O)CN1CCOCC1 [Compound 2, (Z)-3-(3-(3,5-bis(trifluoromethyl)phenyl)-1H-1,2,4-triazol-1-yl)-N′-(2-morpholinoacetyl)acrylohydrazide]
weight loss (15 mg/kg PO MWF): Some weight loss was observed | tumor growth relative to vehicle (area under the growth curves, ANOVA) (Compound 2 15 or 7.5 mg/kg PO MWF, cyclophosphamide 80 mg/kg IP): antitumor effect at both 7.5 mg/kg and 15 mg/kg doses in a dose dependent manner
